Assay results from patent publication US20260125352A1, “PROCESSES FOR CONVERTING FURFURALS” (Origin Materials Operating, Inc., priority 2023, published 2026).

Assay: Solubility of amine and their hydrochlorides in solvents at room temperature
Assay type: physicochemical
Conditions: for Solubility of amines in acetone / Solubility of amines in methanol / Solubility of amines in methylfurfural (MF) / Solubility of amines in propylene carbonate / Solubility of amines in toluene / Solubility of amines in water: free amine, low values at saturation; for Solubility of amines in acetone / Solubility of amine hydrochloride salts in acetone: acetone μ = 20.7, high values not necessarily at saturation; for Solubility of amines in methanol / Solubility of amine hydrochloride salts in methanol: methanol μ = 32.7, high values not necessarily at saturation; for Solubility of amines in methylfurfural (MF) / Solubility of amine hydrochloride salts in methylfurfural (MF): methylfurfural (MF) μ = 41.9, high values not necessarily at saturation; for Solubility of amines in propylene carbonate / Solubility of amine hydrochloride salts in propylene carbonate: propylene carbonate μ = 64.9, high values not necessarily at saturation; for Solubility of amines in toluene / Solubility of amine hydrochloride salts in toluene: toluene μ = 2.4, high values not necessarily at saturation; for Solubility of amines in water / Solubility of amine hydrochloride salts in water: water μ = 78.4, high values not necessarily at saturation; for Solubility of amine hydrochloride salts in acetone / Solubility of amine hydrochloride salts in methanol / Solubility of amine hydrochloride salts in methylfurfural (MF) / Solubility of amine hydrochloride salts in propylene carbonate / Solubility of amine hydrochloride salts in toluene / Solubility of amine hydrochloride salts in water: hydrochloride salt of the amine precursor

SMILES | Solubility of amines in acetone [wt. %] | Solubility of amines in methanol [wt. %] | Solubility of amines in methylfurfural (MF) [wt. %] | Solubility of amines in propylene carbonate [wt. %] | Solubility of amines in toluene [wt. %] | Solubility of amines in water [wt. %] | Solubility of amine hydrochloride salts in acetone [wt. %] | Solubility of amine hydrochloride salts in methanol [wt. %] | Solubility of amine hydrochloride salts in methylfurfural (MF) [wt. %] | Solubility of amine hydrochloride salts in propylene carbonate [wt. %] | Solubility of amine hydrochloride salts in toluene [wt. %] | Solubility of amine hydrochloride salts in water [wt. %]
CCN(C(C)C)C(C)C [Hunig's base] | 49.20 | 49.11 | 14.35 | 4.59 | 46.90 | 0.30 | 15.01 | 33.08 | 26.83 | 34.05 | <4.91 | 33.39
CCCCCN(CCCCC)CCCCC [triamylamine] | 49.87 | 9.27 | 2.49 | 0.17 | 47.61 | 0.00 | – | – | – | – | – | –
CC(C)CN(CC(C)C)CC(C)C [triisobutylamine, 2-methyl-N,N-bis(2-methylpropyl)propan-1-amine] | – | – | – | – | – | – | 34.35 | 47.15 | 24.44 | 31.21 | 51.82 | 25.88
CN(C)C [trimethylamine] | – | – | – | – | – | 47.16 | <0.09 | 34.66 | <0.13 | <1.16 | <0.12 | 38.39
